Laboratory results reported in patent US8993585B2, “Cyclic amine substituted pyrimidinediamines as PKC inhibitors” (Rigel Pharmaceuticals, Inc., priority 2007, dated 2015).
pIC50: −log10 of the molar value.

Test system: Human primary T cells
Test: IL-2 ELISA, Human Primary T Cell, Anti-CD3+CD28+ (Example 3)
Assay type: cell-based
Settings: anti-CD3+CD28 stimulation
Experimental: Human primary T cell isolation and culture: Human primary T cells were prepared as follows. […] The cells at the serum:ficoll interface were recovered and washed twice with 5 volumes of PBS. […] The primary T-cells were then washed twice with PBS to remove the IL-2.
Primary T cell stimulation and IL2 ELISA: Human primary T cells (100,000 cells per well) were pre-incubated with or without test compound in Yssel's medium for 1 hr at 37° C. Cells were then stimulated by transferring them to round-bottom 96-well plates pre-coated with 1 ug/ml αCD3 and 5 μg/ml αCD28. For counter assay, cells were instead stimulated by adding 8× stock solutions of PMA and ionomycin in Yssels (for final concentrations of 0.5 ng/ml PMA and 0.1 uM ionomycin, both from Calbiochem).

With `COc1ccc(Nc2ncc(C(F)(F)F)c(NC3CC(C)(C)N(C)C(C)(C)C3)n2)cc1Cl` [Compound I-32] as the compound, how does the pIC50 (24 hours) read?
The pIC50 was 6.48.

With `CN1C(C)(C)CC(Nc2nc(Nc3cc4c(cc3F)OC(F)(F)O4)ncc2F)CC1(C)C` [II-176] as the compound, how does the pIC50 (Homo sapiens, T-cell, 24 h) read?
Its pIC50 is 5.67.

How did the pIC50 (Homo sapiens, T-cell, 24 h) turn out when `CN(C)c1ccc(-c2ccc(Nc3ncc(F)c(NC4CC(C)(C)N(C)C(C)(C)C4)n3)cc2C#N)cn1` [Compound I-426] was run?
Its pIC50 is 6.38.

With `COc1ccc(Nc2ncc(F)c(NC3CC(C)(C)N(C)C(C)(C)C3)n2)cc1OCCN(C)C` [Compound I-421] as the compound, how does the pIC50 (24 hours) read?
Its pIC50 is 5.33.

How did the pIC50 (24 hours) turn out when `CCN1CCN(c2ccc(Nc3ncc(C)c(NC4CC(C)(C)N(C)C(C)(C)C4)n3)cc2C)CC1` [Compound I-18] was run?
Its pIC50 is 5.03.

`CN1C(C)(C)CC(Nc2nc(Nc3ccc(OC(F)(F)F)c(Br)c3)ncc2F)CC1(C)C` [Compound I-177] was tested. Which pIC50 (24 hours) did it give?
Its pIC50 is 6.12.

How did the pIC50 (24 hours) turn out when `CN1C(C)(C)CC(Nc2nc(Nc3ccc(-c4cc5ccccc5s4)c(Cl)c3)ncc2F)CC1(C)C` [Compound I-156] was run?
The pIC50 was 5.54.

How did the pIC50 (Homo sapiens, T-cell, 24 h) turn out when `CN1C(C)(C)CC(Nc2nc(Nc3ccc4c(c3)OCC(=O)N4CCF)ncc2F)CC1(C)C` [II-82] was run?
The pIC50 was 6.54.

With `COc1cc(Nc2ncc(C(F)(F)F)c(NC3CC(C)(C)N(C)C(C)(C)C3)n2)cc(-n2nnnc2C)c1` [Compound I-370] as the compound, how does the pIC50 (24 hours) read?
The pIC50 was 7.03.

How did the pIC50 (24 hours) turn out when `COc1cc(C)c(Nc2ncc(F)c(NC3CC(C)(C)N(C)C(C)(C)C3)n2)cc1OC` [Compound I-380] was run?
Its pIC50 is 4.71.

How did the pIC50 (24 hours) turn out when `CC(C)OC(=O)COc1ccc(Nc2ncc(F)c(NC3CC(C)(C)N(C)C(C)(C)C3)n2)cc1` [Compound I-135] was run?
Its pIC50 is 5.33.

`CC(=O)N1CCN(c2ccc(Nc3ncc(F)c(NC4CC(C)(C)N(C)C(C)(C)C4)n3)cc2Cl)CC1` [Compound I-67] was tested. Which pIC50 (24 hours) did it give?
The pIC50 was 6.46.

With `COc1ccc(-c2csc(Nc3ncc(F)c(NC4CC(C)(C)N(C)C(C)(C)C4)n3)n2)cc1OC` [II-138] as the compound, how does the pIC50 (Homo sapiens, T-cell, 24 h) read?
The pIC50 was 6.15.

How did the pIC50 (Homo sapiens, T-cell, 24 h) turn out when `CC1(C)CC(Nc2nc(Nc3ccc4c(c3)oc(=O)n4CCN3CCOCC3)ncc2F)CC(C)(C)N1` [II-168] was run?
Its pIC50 is 5.25.

`Cc1cnc(Nc2ccc(N3CCN(C)CC3)c(Cl)c2)nc1NC1CC(C)(C)N(C)C(C)(C)C1` [Compound I-29] was tested. Which pIC50 (24 hours) did it give?
The pIC50 was 6.33.

How did the pIC50 (24 hours) turn out when `COc1ccc(Nc2ncc(F)c(NC3CC(C)(C)N(C)C(C)(C)C3)n2)cc1OCC(F)(F)F` [Compound I-401] was run?
Its pIC50 is 5.50.

`CN1C(C)(C)CC(Nc2nc(Nc3cccc(-n4cnnn4)c3)ncc2C#N)CC1(C)C` [Compound I-405] was tested. Which pIC50 (24 hours) did it give?
The pIC50 was 6.62.

`CN1C(C)(C)CC(Nc2nc(Nc3ccc(OC(F)(F)F)c(-c4cnn(C)c4)c3)ncc2F)CC1(C)C` [Compound I-210] was tested. Which pIC50 (24 hours) did it give?
Its pIC50 is 5.91.

With `CN1C(C)(C)CC(N(Cc2ccc3ccccc3n2)c2nc(Nc3ccc4c(c3)OCCO4)ncc2F)CC1(C)C` [II-89] as the compound, how does the pIC50 (Homo sapiens, T-cell, 24 h) read?
The pIC50 was 5.12.

How did the pIC50 (24 hours) turn out when `COc1ccc(Nc2ncc(F)c(NC3CCC(C)(C)N(C)C(C)(C)C3)n2)cc1C(F)(F)F` (stereo not drawn) [Compound I-268, 5-Fluoro-N2-[4-methoxy-3-trifluoromethyl]phenyl-N4-(1,2,2,7,7-pentamethylazepan-4-yl)-2,4-pyrimidinediamine] was run?
Its pIC50 is 4.50.

How did the pIC50 (24 hours) turn out when `CN1C(C)(C)CC(Nc2nc(Nc3ccc(Cl)c(C#N)c3)ncc2C(F)(F)F)CC1(C)C` [Compound I-169] was run?
The pIC50 was 6.17.

How did the pIC50 (24 hours) turn out when `COc1ccc(Nc2ncc(F)c(NC3CCC(C)(C)N(C)C(C)(C)C3)n2)cc1Cl` (stereo not drawn) [Compound I-262, 5-Fluoro-N2-[3-chloro-4-methoxy]phenyl-N4-(1,2,2,7,7-pentamethylazepan-4-yl)-2,4-pyrimidinediamine] was run?
Its pIC50 is 4.83.

How did the pIC50 (Homo sapiens, T-cell, 24 h) turn out when `CN1C(=O)C(F)(F)Oc2cc(Nc3ncc(Cl)c(NC4CC(C)(C)N(C)C(C)(C)C4)n3)ccc21` [II-28] was run?
Its pIC50 is 6.26.

With `CN1C(C)(C)CC(Nc2nc(Nc3ncc([N+](=O)[O-])s3)ncc2F)CC1(C)C` [II-14] as the compound, how does the pIC50 (Homo sapiens, T-cell, 24 h) read?
Its pIC50 is 5.59.

`CN1C(C)(C)CC(Nc2nc(Nc3cc4c(cc3Br)OC(F)(F)O4)ncc2F)CC1(C)C` [II-122] was tested. Which pIC50 (Homo sapiens, T-cell, 24 h) did it give?
Its pIC50 is 5.67.

With `CN1C(C)(C)CC(Nc2nc(Nc3ccc(OCCN4CCOCC4)c(Cl)c3)ncc2C#N)CC1(C)C` [Compound I-373] as the compound, how does the pIC50 (24 hours) read?
The pIC50 was 6.27.

`CN1C(C)(C)CC(Nc2nc(Nc3nc4ccc(F)cc4s3)ncc2F)CC1(C)C` [II-131] was tested. Which pIC50 (Homo sapiens, T-cell, 24 h) did it give?
Its pIC50 is 6.00.

How did the pIC50 (Homo sapiens, T-cell, 24 h) turn out when `CN1C(=O)C(C)(C)Sc2cc(Nc3ncc(F)c(NC4CC(C)(C)N(C)C(C)(C)C4)n3)ccc21` [II-62] was run?
Its pIC50 is 7.42.

`COc1cc(Nc2ncc(F)c(NC3CC(C)(C)N(C)C(C)(C)C3)n2)ccc1-n1nc(C)cc1C` [Compound I-361] was tested. Which pIC50 (24 hours) did it give?
Its pIC50 is 5.33.

With `CN1C(C)(C)CC(Nc2nc(Nc3ccc4c(c3)OC3(CCCC3)O4)ncc2F)CC1(C)C` [II-113] as the compound, how does the pIC50 (Homo sapiens, T-cell, 24 h) read?
Its pIC50 is 5.66.

How did the pIC50 (Homo sapiens, T-cell, 24 h) turn out when `CCOc1ccc2nc(Nc3ncc(F)c(NC4CC(C)(C)N(C)C(C)(C)C4)n3)sc2c1` [II-18] was run?
Its pIC50 is 5.67.

With `CN1C(C)(C)CC(Nc2nc(Nc3nc(-c4ccc(F)cc4F)cs3)ncc2F)CC1(C)C` [II-141] as the compound, how does the pIC50 (Homo sapiens, T-cell, 24 h) read?
Its pIC50 is 6.00.

`CCOc1ccc(Nc2ncc(F)c(NC3CC(C)(C)N(C)C(C)(C)C3)n2)cc1-n1nnnc1CC` [Compound I-409] was tested. Which pIC50 (24 hours) did it give?
Its pIC50 is 7.30.

How did the pIC50 (Homo sapiens, T-cell, 24 h) turn out when `CN1C(=O)c2ccc(Nc3ncc(F)c(NC4CC(C)(C)NC(C)(C)C4)n3)cc2C1=O` [II-153] was run?
The pIC50 was 5.74.

How did the pIC50 (24 hours, citrate salt) turn out when `COc1ccc(Nc2ncc(F)c(NC3CC(C)(C)N(C)C(C)(C)C3)n2)cc1OC(F)F` [Compound I-359] was run?
The pIC50 was 6.93.

With `COc1ccc(Nc2ncc(F)c(NC3CC(C)(C)N(C)C(C)(C)C3)n2)cc1-c1ccoc1` [Compound I-183] as the compound, how does the pIC50 (24 hours) read?
The pIC50 was 6.05.

With `CN1C(C)(C)CC(Nc2nc(Nc3ccc4c(c3)oc(=O)n4CCN3CCOCC3)ncc2F)CC1(C)C` [II-167] as the compound, how does the pIC50 (Homo sapiens, T-cell, 24 h) read?
Its pIC50 is 5.66.

With `COc1cc(Nc2ncc(F)c(N(Cc3ccc4ccccc4c3)C3CC(C)(C)N(C)C(C)(C)C3)n2)cc(OC)c1` [Compound I-314] as the compound, how does the pIC50 (Homo sapiens, T-cell, 24 h) read?
The pIC50 was 5.59.

`CNC(=O)c1cc(Nc2ncc(F)c(NC3CC(C)(C)N(C)C(C)(C)C3)n2)ccc1N1CCN(C)CC1` [Compound I-54] was tested. Which pIC50 (24 hours) did it give?
The pIC50 was 5.51.

With `CN1CCN(Cc2ccc(Nc3ncc(F)c(NC4CC(C)(C)N(C)C(C)(C)C4)n3)cc2C(F)(F)F)CC1` [Compound I-52] as the compound, how does the pIC50 (24 hours) read?
The pIC50 was 6.88.

How did the pIC50 (Homo sapiens, T-cell, 24 h) turn out when `Cc1ccc(C)n1-c1cc(Nc2ncc(F)c(NC3CC(C)(C)NC(C)(C)C3)n2)ccc1OCCN1CCCC1` [Compound I-442] was run?
The pIC50 was 5.75.

How did the pIC50 (24 hours) turn out when `CN1C(C)(C)CC(Nc2nc(Nc3ccc(O)cc3)ncc2F)CC1(C)C` [Compound I-252] was run?
Its pIC50 is 4.99.

With `CN1C(C)(C)CC(Nc2nc(Nc3ccc(NC(=O)c4ccco4)c(Cl)c3)ncc2Cl)CC1(C)C` [Compound I-351] as the compound, how does the pIC50 (24 hours) read?
The pIC50 was 6.70.

With `CCCN1C(=O)COc2cc(Nc3ncc(F)c(NC4CC(C)(C)N(C)C(C)(C)C4)n3)ccc21` [II-59] as the compound, how does the pIC50 (Homo sapiens, T-cell, 24 h) read?
Its pIC50 is 6.83.

How did the pIC50 (Homo sapiens, T-cell, 24 h) turn out when `CN1C(C)(C)CC(Nc2nc(Nc3nc(-c4ccc(NS(=O)(=O)c5ccc(Cl)cc5)cc4)cs3)ncc2F)CC1(C)C` [II-142] was run?
Its pIC50 is 5.99.

`CN1C(C)(C)CC(Nc2nc(Nc3ccc(N4CCCC4)c(OC(F)F)c3)ncc2F)CC1(C)C` [Compound I-237] was tested. Which pIC50 (24 hours) did it give?
Its pIC50 is 6.05.

With `COc1ccc(Nc2ncc(F)c(NC3CCN(CCO)CC3)n2)cc1Cl` [III-5, N2-(3-Chloro-4-methoxy)phenyl-5-fluoro-N4-[1-(2-hydroxyethyl)piperidin-4-yl]-2,4-pyrimidinediamine] as the compound, how does the pIC50 (24 hours) read?
Its pIC50 is 5.49.

`CN1C(C)(C)CC(Nc2nc(Nc3ccc4c(c3)CC(=O)NO4)ncc2F)CC1(C)C` [II-3] was tested. Which pIC50 (Homo sapiens, T-cell, 24 h) did it give?
The pIC50 was 5.73.

With `CN1CCN(Cc2ccc(Nc3ncc(F)c(NC4CC(C)(C)N(C)C(C)(C)C4)n3)cc2Cl)CC1` [Compound I-57] as the compound, how does the pIC50 (24 hours) read?
Its pIC50 is 6.44.

How did the pIC50 (24 hours) turn out when `Cc1cnc(Nc2cccc(S(N)(=O)=O)c2)nc1NC1CC(C)(C)N(C)C(C)(C)C1` [Compound I-14] was run?
The pIC50 was 5.01.

With `CN1C(C)(C)CC(Nc2nc(N[C@H]3CCc4ccccc43)ncc2F)CC1(C)C` [II-83] as the compound, how does the pIC50 (Homo sapiens, T-cell, 24 h) read?
The pIC50 was 4.71.
